For one data set, the target named is ROCK2 (Homo sapiens, UniProt O75116). Description: Kinase inhibition (ROCKI & ROCKII), radiometric 33P-ATP biochemical assay. The following applies: for inhibitory activity against ROCK (in words): summary of point C1.1. As to the method: On-target activity against ROCK was measured in a biochemical assay, using the following reagents: Base Reaction buffer; 20 mM Hepes (pH 7.5), 10 mM MgCl2, 1 mM EGTA, 0.02% Brij35, 0.02 mg/ml BSA, 0.1 mM Na3VO4, 2 mM DTT, 1% DMSO. Required cofactors are added individually to each kinase reaction. The reaction procedure first involved the preparation of a peptide substrate in a freshly prepared reaction buffer. Required cofactors were then added to the substrate solution. ROCK (1 nM final concentration) was then delivered to the substrate solution. After gentle mix, DMSO solutions of the test compounds were added to the enzyme. Substrate mix ^33P-ATP (specific activity 0.01 μCi/μl final) was then delivered into the reaction mixture to initiate the reaction. The kinase reaction was incubated for 120 min. at room temperature. Reactions were then spotted onto P81 ion exchange paper (Whatman #3698-915). Filters were washed extensively in 0.1% Phosphoric acid. A radiometric count was then performed and IC50 values were subsequently determined.
ROCK2, sequence (O75116 whole entry, species assumed): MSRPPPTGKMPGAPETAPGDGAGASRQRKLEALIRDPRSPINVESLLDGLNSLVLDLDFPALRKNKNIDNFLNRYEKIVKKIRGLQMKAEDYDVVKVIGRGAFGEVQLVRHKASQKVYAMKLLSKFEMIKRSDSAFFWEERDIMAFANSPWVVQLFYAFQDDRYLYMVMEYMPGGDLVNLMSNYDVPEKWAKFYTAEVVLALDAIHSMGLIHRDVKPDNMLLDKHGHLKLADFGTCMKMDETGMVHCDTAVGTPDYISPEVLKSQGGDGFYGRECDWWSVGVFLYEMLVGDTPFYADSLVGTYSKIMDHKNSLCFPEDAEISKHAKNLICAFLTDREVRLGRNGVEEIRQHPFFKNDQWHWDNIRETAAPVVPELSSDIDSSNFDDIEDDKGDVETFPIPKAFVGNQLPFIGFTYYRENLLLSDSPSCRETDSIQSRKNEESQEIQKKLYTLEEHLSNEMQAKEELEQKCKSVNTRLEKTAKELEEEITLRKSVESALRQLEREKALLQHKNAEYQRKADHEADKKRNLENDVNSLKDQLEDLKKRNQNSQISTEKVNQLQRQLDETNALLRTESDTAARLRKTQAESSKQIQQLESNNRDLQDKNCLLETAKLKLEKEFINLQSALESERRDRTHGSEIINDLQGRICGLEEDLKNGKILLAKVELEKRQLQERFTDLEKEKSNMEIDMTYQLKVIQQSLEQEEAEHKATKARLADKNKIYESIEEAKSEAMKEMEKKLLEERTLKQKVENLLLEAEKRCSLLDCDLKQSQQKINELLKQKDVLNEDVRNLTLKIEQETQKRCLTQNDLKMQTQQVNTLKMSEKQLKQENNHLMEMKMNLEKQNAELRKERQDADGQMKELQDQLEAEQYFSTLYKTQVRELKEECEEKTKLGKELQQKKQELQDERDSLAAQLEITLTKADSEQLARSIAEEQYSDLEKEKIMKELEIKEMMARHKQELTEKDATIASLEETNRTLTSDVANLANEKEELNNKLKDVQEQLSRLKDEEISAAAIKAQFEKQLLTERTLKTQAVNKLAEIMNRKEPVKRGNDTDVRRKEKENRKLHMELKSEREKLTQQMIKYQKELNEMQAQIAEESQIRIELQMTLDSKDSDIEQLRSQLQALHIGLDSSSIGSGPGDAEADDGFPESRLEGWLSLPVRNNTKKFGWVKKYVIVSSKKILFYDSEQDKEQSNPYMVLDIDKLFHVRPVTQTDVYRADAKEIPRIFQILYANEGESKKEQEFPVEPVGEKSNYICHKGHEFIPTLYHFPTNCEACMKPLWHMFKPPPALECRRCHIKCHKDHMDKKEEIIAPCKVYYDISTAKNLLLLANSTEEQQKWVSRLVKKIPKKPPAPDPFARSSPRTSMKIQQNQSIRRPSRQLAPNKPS
The IC50 values obtained (in accordance with the protocol set forth above) are represented as follows: “+++” means IC50 below 0.1 μM, “++” means IC50 between 0.1 μM and 1 μM; “+” means IC50 between 1 and 10 μM and “ND” means “not determined yet”.

Data set [1] is described as follows: Stability assay in rabbit aqueous humor. The class given is in vitro ADME. The settings on record: for half-life at 1 μM: rabbit, read-out: t½ AH. As for the experimental part: Compounds are incubated at a concentration of 1 μM in rabbit aqueous humor (AH). Samples are taken at fixed time points and the remnant of compound is determined by LC-MS/MS after protein precipitation. Half life is expressed in minutes.

Data set [2] is described as follows: Stability in plasma, species not stated. The following applies: for half-life at 1 μM: read-out: t½ Plasma; for half life in plasma (in words): point C.2.1. The class given is in vitro ADME. As for the experimental part:
(§1) Compounds are incubated at a concentration of 1 μM in rat (mice or rabbit) or human plasma. Samples are taken at fixed time points and the remnant of compound is determined by LC-MS/MS after protein precipitation. Half life is expressed in minutes.

A short description of data set [3]: Stability towards drug metabolizing enzymes in lung S9. The class given is in vitro ADME, human. The settings on record: for half-life at 1 μM: human. As for the experimental part: A 1 μM solution of the ROCK inhibitors is incubated with a reaction mixture containing lung S9 (from smokers) as well as the cofactors NADPH, UDPGA, PAPS and GSH. Samples are collected at 0, 15, 30 and 60 minutes post incubation. Negative control samples incubated with ROCK inhibitors and S9 fraction in the absence of cofactors are run in parallel. By using LC-MS/MS analysis, the percent of ROCK compounds remaining at each time point, the metabolic half-life of the ROCK compounds (expressed in minutes) and the metabolic half-life of the control compounds are determined.

Data set [4] has as its system MLC-T18/S19 phosphorylation. Description: Myosin light chain phosphorylation assay (ELISA) in A7r5 cells. The settings on record: for IC50 / EC50: Rattus norvegicus; for IC50: A7R5, comparison table, MLC phosphorylation, read-out: IC50 MLC-PP; for functional activity in the MLC phosphorylation assay (in words): FIG. 1; for EC50: MLC-T18/S19 phosphorylation, A7r5 cells, serum-free medium. Format: cell-based, Rat. As to the method: Rat smooth muscle cell line A7r5 is used. The endogenous expression of ROCK esults in a constitutive phosphorylation of the regulatory myosin light chain at T18/S19. A7r5 cells were plated in DMEM supplemented with 10% FCS in multiwall cell culture plates. After serum starvation overnight, cells were incubated with compounds in serum-free medium.
Quantification of MLC-T18/S19 phosphorylation is assesses in 96 well-plates via ELISA using a phspho-MLC-T18/S19 specific antibody and a secondary detection antibody. Raw data were converted into percent substrate phosphorylation relative to high controls, which were set to 100%.
EC50 values were determined using GraphPad Prism 5.01 software using a nonlinear regression curve fit with variable hill slope.
The EC50 values obtained (in accordance with the protocols set forth above) are represented as follows: “+++” means EC50 below 0.3 μM, “++” means EC50 between 0.3 μM and 1 μM; “+” means EC50 between 1 and 10 μM and “−” means EC50>10 μM.
(In general: In an ELISA, binding on a coated surface is turned into a signal by an enzyme label.)

Data set [5] has as its system normotensive New Zeland White rabbits. Description: Intraocular pressure (IOP) lowering in normotensive rabbits. The class given is in vivo, rabbit. As to the method:
A detailed example of the IOP lowering effects of the compounds of the invention is here provided for compound 14. Compound 14 was here formulated as a 0.3% solution of pH=6.91 in Water/PEG 400 1:1.
IOP of to normotensive New Zeland White rabbits (n=3) was measured using a Tonolab tonometer, at 9h00, prior to compound administration.
At 9h30, one drop (50 μl) of the formulated solution was administered to rabbits, in the right eye (OD); while one drop (50 μl) of the vehicle solution was administered to the left eye (OS). IOP was then recorded in 1 h intervals until 17 h.

Data set [6] is described as follows: Stability assay in human plasma. Format: in vitro ADME. The following applies: 1 μM compound, LC-MS/MS, read-out: t½ human plasma. As for the experimental part: as §1
Data set [7] can be described thus: Stability assay in mice plasma. The class given is in vitro ADME. The following applies: mouse, 1 μM compound, LC-MS/MS, read-out: t½ mice plasma. As for the experimental part:
as §1

The mark [8] stands for this setting: aqueous humor, comparison table, aqueous humor.
[9] abbreviates: comparison table, plasma species not given.
Setting [10] is: lung S9 (from smokers), comparison table, read-out: t½ lung S9.
Setting [11] is: ROCK 1 nM, 120 min at room temperature.
Where [12] appears, read: aqueous humor, 1 μM in rabbit aqueous humor.
The mark [13] stands for this setting: 1 μM, lung S9 from smokers, cofactors NADPH, UDPGA, PAPS, GSH.
The mark [14] stands for this setting: lung S9 (from smokers), text summary of point C.2.2, read-out: half-life in lung tissue.

“Also recorded” adds a separate entry of the source.

One may read the IC50 as the concentration that gives 50% inhibition. On ROCK2 (comparison table), `CCOC(=O)COc1cccc(CN2CCCC(Nc3ccc4[nH]ncc4c3)C2)c1` (racemic) [Compound 1.060, reference compound] displayed an IC50 of 7 nM. Also, in data set [1] (comparison table, aqueous humor), the “t½ AH” value is recorded as below 5 min. The half-life at 1 μM in data set [1] (setting [8]), in data set [2] (setting [9]) and in data set [3] (setting [10]) was below 5 min each time. Also, the “t½ Plasma” value in data set [2] (setting [9]) is given as below 5 min. Besides, the “t½ lung S9” value in data set [3] (comparison table) is below 5 min.
Turning to `CS(=O)(=O)Nc1cccc(CN2CCCC(Nc3ccc4[nH]ncc4c3)C2)c1` (stereo not drawn) [Compound 1.091, reference compound], the concentration for half-maximal inhibition (IC50) against ROCK2 (comparison table) amounted to 2.4 nM; in data set [4] it was 110 nM. The results for the half-life at 1 μM in data set [1] (setting [8]), in data set [2] (setting [9]) and in data set [3] (setting [10]) were above 120 min, above 120 min and above 240 min, respectively. Further, the “degradation in the tested media, including plasma (in words)” value in data set [2] (plasma, aqueous humor, lung S9) is “not degraded at a significant rate”.
One may read the EC50 as the concentration giving half of the maximal effect. The low end stands for greater potency, the high end for weaker potency. As for `O=C(OCC1CCCO1)c1cccc(CN2CCCC(Nc3ccc4[nH]ncc4c3)C2)c1` (stereo not drawn) [Compound 14], the half-inhibitory concentration (IC50) is below 100 nM at ROCK2 (setting [11]), 3.4 nM on ROCK2 (comparison table) and 240 nM in data set [4]. For the same compound, the “inhibitory activity against ROCK (in words)” value (shortened to “inhibitory activity”) at ROCK2 is listed as “strong inhibitory activity”. Also, the half-life at 1 μM is above 120 min in data set [1] (setting [12]); above 120 min in data set [1] (setting [8]); below 5 min in data set [2] (setting [9]); below 5 min in data set [6]; 9 min in data set [3] (setting [10]). For the same compound, the “half-life in aqueous humor compared with plasma (in words)” value in data set [1] (text summary of point C.2.3) is on record as “significantly longer half-life in aqueous humor than in plasma”. Also, the “functional activity in the MLC phosphorylation assay (in words)” value (“functional activity” for short) in data set [4] is “functionally active compound; also recorded: display functional activity”. Moreover, in data set [4], the EC50 was below 300 nM. For the same compound, the “half life in plasma (in words)” value in data set [2] is “short half life”. Besides, the “time after administration until which the IOP decrease is statistically significant (P≦0.05)” value in data set [5] (0.3% solution, one drop at 9h30, until the 14 h time point) was 4.30 h. In addition, the “IOP decrease following administration (in words)” value in data set [5] (0.3% solution, one drop, visible until 17 h) is “pronounced IOP decrease”. For the same compound, the “Average IOP OD (mmHg)” value in data set [5] (9 h, right eye (OD), prior to compound administration (baseline), n=3) worked out at 9.89 mmHg; in data set [5] (10 h, one drop (50 μl) 0.3% solution in Water/PEG 400 1:1 at 9h30, right eye (OD)) it was 7.67 mmHg; in data set [5] (11 h, one drop (50 μl) 0.3% solution at 9h30, right eye (OD)) it was 6.44 mmHg; in data set [5] (12 h, one drop (50 μl) 0.3% solution at 9h30, right eye (OD)), 6.22 mmHg; in data set [5] (13 h, one drop (50 μl) 0.3% solution at 9h30, right eye (OD)), 7.00 mmHg; in data set [5] (14 h, one drop (50 μl) 0.3% solution at 9h30, right eye (OD)) it was 6.44 mmHg. For the same compound, the “Average IOP OD (mmHg)” value in data set [5] (15 h, one drop (50 μl) 0.3% solution at 9h30, right eye (OD)) is 7.67 mmHg; in data set [5] (16 h, one drop (50 μl) 0.3% solution at 9h30, right eye (OD)), 7.89 mmHg; in data set [5] (17 h, one drop (50 μl) 0.3% solution at 9h30, right eye (OD)) it was 8.11 mmHg.
For `O=C(NCCSC1CCOC1=O)c1cccc(CN2CCCC(Nc3cccc4cnccc34)C2)c1` (stereo not drawn) [Compound 26], the half-life at 1 μM in data set [7] is 2.5 min; in data set [2] (setting [9]) it was below 5 min; in data set [6], 5 min; in data set [3] (setting [14]) it was above 240 min. For the same compound, the IC50 is below 100 nM against ROCK2 (setting [11]), 1.9 nM at ROCK2 (comparison table) and 400 nM in data set [4]. In addition, the “inhibitory activity” value against ROCK2 is listed as “strong inhibitory activity”. Further, the “functional activity” value in data set [4] was “display functional activity”. In data set [4], this compound displayed an EC50 of 300 to 1000 nM. For the same compound, the “half life in plasma (in words)” value in data set [2] was “short half life”. Also, in data set [3] (setting [13]), the “t½ human lung S9” value is above 240 min. Also, in data set [3] (comparison table), the “t½ lung S9” value was above 240 min.
As for `O=C(NCCSC1CCOC1=O)c1cccc(CN2CCCC(Nc3ccc4[nH]ncc4c3)C2)c1` (stereo not drawn) [Compound 28], the half-life at 1 μM in data set [7] was 2.2 min; in data set [6], below 5 min; in data set [3] (setting [14]), above 240 min. The 50% inhibitory concentration (IC50) against ROCK2 (setting [11]) is below 100 nM. Also, at ROCK2, the “inhibitory activity” value was “strong inhibitory activity”. Also, in data set [4], the “functional activity” value is given as “display functional activity”. In data set [4], this compound registered a concentration for a half-maximal effect (EC50) of 300 to 1000 nM. For the same compound, the “half life in plasma (in words)” value in data set [2] is recorded as “short half life”. The “t½ human lung S9” value in data set [3] (setting [13]) is above 240 min.
`COC(=O)c1cccc(NC(=O)c2cccc(CN3CCC(Nc4cccc5cnccc45)C3)c2)c1` (stereo not drawn) [Compound 32]: the results for the IC50 (at ROCK2 (setting [11]); against ROCK2 (comparison table); in data set [4]) were below 100 nM, 25 nM and 160 nM, respectively. Besides, the half-life at 1 μM was above 120 min in data set [1] (setting [12]); 98 min in data set [1] (setting [8]); 22 min in data set [2] (setting [9]); 25 min in data set [6]; above 240 min in data set [3] (1 μM, lung S9 from smokers, cofactors NADPH, UDPGA, PAPS, GSH, read-out: t½ human lung S9). The same compound registered a concentration giving a half-maximal response (EC50) in data set [4] below 300 nM. The “t½ lung S9” value in data set [3] (comparison table) is above 240 min.

The record behind these values is patent US9073905B2, “Rock inhibitors” (Amakem NV, priority 2011, dated 2015).
